Results: the NIST ThermoML archive (doi:10.1021/je101232g)

Settings: Liquid

CCCCCCCCCCCCCC[P+](CCCCCC)(CCCCCC)CCCCCC.N#C[N-]C#N [tetradecyl(trihexyl)phosphonium dicyanamide]
mass density [kg/m3]
Settings | 283.15 K | 293.15 K | 303.15 K | 313.15 K | 323.15 K | 333.15 K
100 kPa | 907.5 | 901.7 | 895.9 | 890.2 | 884.3 | 878.6
1000 kPa | 908 | 902.1 | 896.4 | 890.6 | 884.8 | 879.2
2000 kPa | 908.4 | 902.6 | 896.9 | 891.2 | 885.4 | 879.7
3000 kPa | 908.9 | 903.1 | 897.4 | 891.6 | 885.9 | 880.2
4000 kPa | 909.3 | 903.5 | 897.9 | 892.1 | 886.5 | 880.8
5000 kPa | 909.8 | 904 | 898.3 | 892.7 | 887 | 881.3
10000 kPa | 912.1 | 906.3 | 900.7 | 895.1 | 889.5 | 884
15000 kPa | 914.3 | 908.5 | 903 | 897.5 | 892 | 886.6
20000 kPa | 916.2 | 910.7 | 905.3 | 899.9 | 894.4 | 889.1
25000 kPa | 918.3 | 912.8 | 907.5 | 902.1 | 896.7 | 891.4
30000 kPa | 920.3 | 914.9 | 909.6 | 904.3 | 899 | 893.9
35000 kPa | 922.2 | 916.9 | 911.6 | 906.5 | 901.4 | 896.2
40000 kPa | 924.2 | 918.9 | 913.7 | 908.5 | 903.4 | 898.3
45000 kPa | 926.1 | 920.9 | 915.7 | 910.7 | 905.6 | 900.5
